Experimental data taken from patent US9113629B2, “4-amino-6-(4-substituted-phenyl)-picolinates and 6-amino-2-(4-substituted-phenyl)-pyrimidine-4-carboxylates and their use as herbicides” (DOW AGROSCIENCES LLC, priority 2013, dated 2015).
Where two headings read alike, the source gives them in different places.

Assays:
[1] = tested on: Key Broadleaf Weed and Crop Species; assay: Post-emergent Test II herbicidal activity (Table 5); type: in vivo; settings: post-emergence, 336 h, post-emergent, 14 days after application; for pest or weed control at 70 g/ha: application rate 70 g ai/ha; for pest or weed control at 140 g/ha: application rate 140 g ai/ha
Method in brief: (§1)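 Plants grown in Metro-Mix 360 (pH 6.0–6.8) in a greenhouse (~15 h photoperiod, 23–29 °C day) to first or second true leaf stage, then sprayed with compound in acetone/DMSO/aqueous crop-oil-surfactant carrier at 187 L/ha by track sprayer. Injury visually scored 0–100% versus untreated plants after 14 d.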

[2] = tested on: Key Grass and Sedge Weeds as well as Grass Crops; assay: Post-emergent Test II herbicidal activity (Table 6); type: in vivo; settings: post-emergence, 336 h; for pest or weed control at 70 g/ha: application rate 70 g ai/ha; for pest or weed control at 140 g/ha: application rate 140 g ai/ha
Method in brief: as §1

[3] = ABUTH: velvetleaf (Abutilon theophrasti), read-out: Visual Growth Reduction (%) 14 Days After Application, ABUTH
[4] = AMARE: redroot pigweed (Amaranthus retroflexus), read-out: Visual Growth Reduction (%) 14 Days After Application, AMARE
[5] = BRSNN: oilseed-rape, canola (Brassica napus), read-out: Visual Growth Reduction (%) 14 Days After Application, BRSNN
[6] = CHEAL: lambsquarters (Chenopodium album), read-out: Visual Growth Reduction (%) 14 Days After Application, CHEAL
[7] = EPHHL: wild poinsettia (Euphorbia heterophylla), read-out: Visual Growth Reduction (%) 14 Days After Application, EPHHL
[8] = HELAN: sunflower (Helianthus annuus), read-out: Visual Growth Reduction (%) 14 Days After Application, HELAN
[9] = VIOTR: wild pansy (Viola tricolor), read-out: Visual Growth Reduction (%) 14 Days After Application, VIOTR
[10] = CYPES: yellow nutsedge (Cyperus esculentus), read-out: Visual Growth Reduction (%) 14 Days After Application, CYPES
[11] = DIGSA: crabgrass (Digitaria sanguinalis), read-out: Visual Growth Reduction (%) 14 Days After Application, DIGSA
[12] = ECHCG: barnyardgrass (Echinochloa crus-galli), read-out: Visual Growth Reduction (%) 14 Days After Application, ECHCG
[13] = ORYSA: rice (Oryza sativa), read-out: Visual Growth Reduction (%) 14 Days After Application, ORYSA
[14] = SETFA: giant foxtail (Setaria faberi), read-out: Visual Growth Reduction (%) 14 Days After Application, SETFA
[15] = SORVU: grain sorghum (Sorghum vulgare), read-out: Visual Growth Reduction (%) 14 Days After Application, SORVU
[16] = TRZSS (wheat, Triticum aestivum), read-out: Visual Growth Reduction (%) 14 Days After Application, TRZSS
[17] = ZEAMX: maize, corn (Zea mays), read-out: Visual Growth Reduction (%) 14 Days After Application, ZEAMX

| Structure (SMILES) | pest or weed control at 70 g/ha [1, 3] [%] | pest or weed control at 140 g/ha [1, 3] [%] | pest or weed control at 70 g/ha [1, 4] [%] | pest or weed control at 140 g/ha [1, 4] [%] | pest or weed control at 70 g/ha [1, 5] [%] | pest or weed control at 140 g/ha [1, 5] [%] | pest or weed control at 70 g/ha [1, 6] [%] | pest or weed control at 140 g/ha [1, 6] [%] | pest or weed control at 70 g/ha [1, 7] [%] | pest or weed control at 140 g/ha [1, 7] [%] | pest or weed control at 70 g/ha [1, 8] [%] | pest or weed control at 140 g/ha [1, 8] [%] | pest or weed control at 70 g/ha [1, 9] [%] | pest or weed control at 140 g/ha [1, 9] [%] | pest or weed control at 70 g/ha [2, 10] [%] | pest or weed control at 140 g/ha [2, 10] [%] | pest or weed control at 70 g/ha [2, 11] [%] | pest or weed control at 140 g/ha [2, 11] [%] | pest or weed control at 70 g/ha [2, 12] [%] | pest or weed control at 140 g/ha [2, 12] [%] | also measured |
| --- | --- | --- | --- | --- | --- | --- | --- | --- | --- | --- | --- | --- | --- | --- | --- | --- | --- | --- | --- | --- | --- |
| Cc1cc(F)c(-c2cc(N)c(Cl)c(C(=O)O)n2)cc1F [Compound 188] | 75 to 84 | 95 to 100 | 95 to 100 | 95 to 100 | 60 to 74 | 60 to 74 | 95 to 100 | 85 to 94 | 95 to 100 | 95 to 100 | 75 to 84 | 75 to 84 | 0 to 29 | 0 to 29 | 0 to 29 | 0 to 29 | 0 to 29 | 0 to 29 | 75 to 84 | 60 to 74 | pest or weed control at 70 g/ha [2, 13]: 0 to 29%; pest or weed control at 140 g/ha [2, 13]: 0 to 29%; pest or weed control at 70 g/ha [2, 14]: 0 to 29%; pest or weed control at 140 g/ha [2, 14]: 30 to 44%; pest or weed control at 70 g/ha [2, 15]: 45 to 59%; pest or weed control at 140 g/ha [2, 15]: 0 to 29%; pest or weed control at 70 g/ha [2, 16]: 0 to 29%; pest or weed control at 140 g/ha [2, 16]: 0 to 29%; pest or weed control at 70 g/ha [2, 17]: 0 to 29%; pest or weed control at 140 g/ha [2, 17]: 0 to 29%; melting point: 172.9 to 175 °C |
| COC(=O)c1nc(-c2cc(F)c(C)cc2F)c(F)c(N)c1Cl [Compound 184] | 95 to 100 | 95 to 100 | 85 to 94 | 95 to 100 | 85 to 94 | 95 to 100 | 85 to 94 | 95 to 100 | 85 to 94 | 95 to 100 | 95 to 100 | 95 to 100 | 0 to 29 | 0 to 29 | 0 to 29 | 0 to 29 | 0 to 29 | 0 to 29 | 45 to 59 | 60 to 74 | pest or weed control at 70 g/ha [2, 13]: 0 to 29%; pest or weed control at 140 g/ha [2, 13]: 0 to 29%; pest or weed control at 70 g/ha [2, 14]: 0 to 29%; pest or weed control at 140 g/ha [2, 14]: 0 to 29%; pest or weed control at 70 g/ha [2, 15]: 0 to 29%; pest or weed control at 140 g/ha [2, 15]: 30 to 44%; pest or weed control at 70 g/ha [2, 16]: 0 to 29%; pest or weed control at 140 g/ha [2, 16]: 0 to 29%; pest or weed control at 70 g/ha [2, 17]: 0 to 29%; pest or weed control at 140 g/ha [2, 17]: 0 to 29%; melting point: 116.5 to 118.8 °C |
